According to patent US8729102B2, “Bicyclic compound” (Takeda Pharmaceutical Company Limited, priority 2010, dated 2014):

Experiments:
[1] = biological target: T1, Human ACC2 (ACC2 (Nd), N terminal deleted) (Homo sapiens, UniProt O00763); experiment: Measurement of ACC2 inhibitory activity (malachite green, recombinant ACC2 (Nd)); type: biochemical; conditions: 10 μM test compound, 20 min preincubation at 30° C., 20 min reaction; for inhibition at 10 µM: read-out: ACC2 inhibitory rate at 10 μM (%)
T1 construct: made in house; host or cells: SF-9 insect cells (baculovirus)
Method: The ACC2 inhibitory action of the compound of the present invention was evaluated by the following method.
(1) Cloning of Human ACC2 Gene and Preparation of Recombinant Baculovirus
Human ACC2 gene was cloned by PCR using a human skeletal muscle cDNA library (Clontech) as a template and Primer 1 and Primer 2 shown below. Primer 1 and Primer 2 were prepared by adding SalI, XbaI restriction enzyme recognition sequences based on the information of the base sequence of human ACC2 gene (Genbank Accession U89344).
(§1) PCR was performed using Pyrobest DNA polymerase (TAKARA BIO INC.). The obtained PCR product was cloned to pT7 Blue vector (Novagen) and after confirmation of the base sequence, digested with restriction enzymes SalI and XbaI. The obtained DNA fragment was inserted into pFAST-BacHTa (Invitrogen) digested with restriction enzymes Sail and XbaI to give expression plasmid ACC2/pFAST-BacHTa.
A plasmid for expression of ACC2 without a mitochondrial targeting sequence was prepared by PCR using the expression plasmid as a template, and Primer 3 (salI restriction enzyme recognition sequence was added) and Primer 4, which are prepared by reference to the information of human ACC2 gene base sequence (Genbank Accession U89344).
as §1, with “Pyrobest-DNA” for “Pyrobest DNA”, “Aflil.” for “XbaI.”, “ACC2/pFAST-BacHTa” for “pFAST-BacHTa (Invitrogen)”, “SalI” for “Sail”, “AfilI” for “XbaI”, “ACC2mito7/pFAST-BacHTa.” for “ACC2/pFAST-BacHTa.”
Using the expression plasmid ACC2mito7/pFAST-BacHTa and BAC-TO-BAC Baculovirus Expression System (Invitrogen), virus stock BAC-ACC2 of recombinant Baculovirus (N terminal deleted (hereinafter Nd)) was prepared.
(2) Preparation of ACC2 (Nd) Protein
SF-9 cells (Invitrogen) were inoculated to a medium (2 L) for insect cells (Sf-900IISFM medium (Invitrogen) containing 10% fetal bovine serum (Trace), 50 mg/L Gentamicin (Invitrogen), 0.1% Pluronic F-68 (Invitrogen)) at 0.5×10^6 cells/mL, and cultured with shaking in Wave Bioreactor (Wave) at 27° C., 20 rpm, rocking angle 6°, oxygen concentration 30%.
On day 4 of the culture, 3 L of the medium for insect cells was added, the rocking angle was set to 8°, and the cells were further cultured. On day 5 of the culture, 100 mL of recombinant Baculovirus BAC-ACC2 (Nd) was added, 5 L of the medium for insect cells was further added, the rocking angle was set to 11°, and the cells were cultured for 3 days. The culture medium was centrifuged at 1000×g for 10 min to give virus-infected cells. The cells were washed with phosphate buffered saline (Invitrogen) and centrifuged under the same conditions. The obtained cells were cryopreserved at −80° C.
The cryopreserved cells were thawed in ice and suspended in 900 mL of 25 mM HEPES buffer (pH 7.5) containing 10% Glycerol, 0.13 M NaCl, 1 mM EDTA, 25 mM Sodium β-Glycerophosphate and 1 mM Sodium Orthovanadate, and supplemented with Complete Protease Inhibitor (Nippon Boehringer Ingelheim Co., Ltd.). The obtained suspension was homogenized three times in a polytron homogenizer (Kinematica) at 20,000 rpm for 30 sec. The obtained cell disruption solution was clarified by centrifugation at 31000×g for 60 min, and filtered through a 0.45 μm filter. The filtrate was passed through a column packed with 60 mL of Ni-NTA Super Flow Gel (QUIAGEN) at a flow rate of about 5 mL/min. The column was washed with buffer A (50 mM HEPES (pH 7.5) containing 0.3 M NaCl), further washed with buffer A containing 20 mM Imidazole, and eluted with buffer A containing 100 mM Imidazole. The eluate was concentrated with Vivaspin 20 (Vivascience) with a molecular weight cut off of 30K. The obtained concentrate was dialyzed against 50 mM HEPES (pH 7.5) containing 10 mM MgCl2, 2 mM Dithiothreitol, 10 mM Tripotassium Citrate and 0.3 M NaCl. […]

[2] = test system: Malonyl-CoA content of femoral muscle; experiment: Malonyl CoA content measurement in femoral muscle after gavage (LC/MS/MS); type: in vivo; conditions: male F344/Jcl rats, 10 mg/kg by gavage, femoral muscle 2 hours after dosing; Mean ± S.D.; vehicle 1.955 ± 0.496
Method: Male F344/Jcl rats (CLEA Japan, Inc., Tokyo) purchased at 5 weeks of age were acclimated to the rearing environment, and used for an experiment of malonyl CoA content measurement at 10 weeks of age. In the experiment of malonyl CoA content measurement, the body weight was measured in the morning (8:00-11:00) 3 days before administration of a test compound, and the rats were divided into groups free of dispersion in the body weight between administration groups. The test compound was prepared as a 0.5% methyl cellulose (Wako) suspension to a dose of 5 mL/kg, in the afternoon (12:00-17:00) of one day before administration by gavage, and administered by gavage according to the body weight on the day of test compound administration. The vehicle group was administered with a solvent (0.5% methyl cellulose) alone by gavage. […]
A sample homogenate for the malonyl CoA measurement was prepared by disrupting a frozen tissue with a measured weight in a Multi-beads shocker (MB400U, Yasui Kikai Corporation), adding an extract (6% perchloric acid:aqueous di-n-butylammonium acetate solution (IPC-DBAA, 0.5 mol/L, TOKYO CHEMICAL INDUSTRY CO., LTD.)=1000:1, 500 μL) containing an internal standard substance ([^13C3]-malonyl CoA lithium salt (100 pmol/mL, Sigma-Aldrich)), and applying the mixture to the Multi-beads shocker again. […]

T1 sequence (O00763 117-2458 limits assumed, stated change not applied): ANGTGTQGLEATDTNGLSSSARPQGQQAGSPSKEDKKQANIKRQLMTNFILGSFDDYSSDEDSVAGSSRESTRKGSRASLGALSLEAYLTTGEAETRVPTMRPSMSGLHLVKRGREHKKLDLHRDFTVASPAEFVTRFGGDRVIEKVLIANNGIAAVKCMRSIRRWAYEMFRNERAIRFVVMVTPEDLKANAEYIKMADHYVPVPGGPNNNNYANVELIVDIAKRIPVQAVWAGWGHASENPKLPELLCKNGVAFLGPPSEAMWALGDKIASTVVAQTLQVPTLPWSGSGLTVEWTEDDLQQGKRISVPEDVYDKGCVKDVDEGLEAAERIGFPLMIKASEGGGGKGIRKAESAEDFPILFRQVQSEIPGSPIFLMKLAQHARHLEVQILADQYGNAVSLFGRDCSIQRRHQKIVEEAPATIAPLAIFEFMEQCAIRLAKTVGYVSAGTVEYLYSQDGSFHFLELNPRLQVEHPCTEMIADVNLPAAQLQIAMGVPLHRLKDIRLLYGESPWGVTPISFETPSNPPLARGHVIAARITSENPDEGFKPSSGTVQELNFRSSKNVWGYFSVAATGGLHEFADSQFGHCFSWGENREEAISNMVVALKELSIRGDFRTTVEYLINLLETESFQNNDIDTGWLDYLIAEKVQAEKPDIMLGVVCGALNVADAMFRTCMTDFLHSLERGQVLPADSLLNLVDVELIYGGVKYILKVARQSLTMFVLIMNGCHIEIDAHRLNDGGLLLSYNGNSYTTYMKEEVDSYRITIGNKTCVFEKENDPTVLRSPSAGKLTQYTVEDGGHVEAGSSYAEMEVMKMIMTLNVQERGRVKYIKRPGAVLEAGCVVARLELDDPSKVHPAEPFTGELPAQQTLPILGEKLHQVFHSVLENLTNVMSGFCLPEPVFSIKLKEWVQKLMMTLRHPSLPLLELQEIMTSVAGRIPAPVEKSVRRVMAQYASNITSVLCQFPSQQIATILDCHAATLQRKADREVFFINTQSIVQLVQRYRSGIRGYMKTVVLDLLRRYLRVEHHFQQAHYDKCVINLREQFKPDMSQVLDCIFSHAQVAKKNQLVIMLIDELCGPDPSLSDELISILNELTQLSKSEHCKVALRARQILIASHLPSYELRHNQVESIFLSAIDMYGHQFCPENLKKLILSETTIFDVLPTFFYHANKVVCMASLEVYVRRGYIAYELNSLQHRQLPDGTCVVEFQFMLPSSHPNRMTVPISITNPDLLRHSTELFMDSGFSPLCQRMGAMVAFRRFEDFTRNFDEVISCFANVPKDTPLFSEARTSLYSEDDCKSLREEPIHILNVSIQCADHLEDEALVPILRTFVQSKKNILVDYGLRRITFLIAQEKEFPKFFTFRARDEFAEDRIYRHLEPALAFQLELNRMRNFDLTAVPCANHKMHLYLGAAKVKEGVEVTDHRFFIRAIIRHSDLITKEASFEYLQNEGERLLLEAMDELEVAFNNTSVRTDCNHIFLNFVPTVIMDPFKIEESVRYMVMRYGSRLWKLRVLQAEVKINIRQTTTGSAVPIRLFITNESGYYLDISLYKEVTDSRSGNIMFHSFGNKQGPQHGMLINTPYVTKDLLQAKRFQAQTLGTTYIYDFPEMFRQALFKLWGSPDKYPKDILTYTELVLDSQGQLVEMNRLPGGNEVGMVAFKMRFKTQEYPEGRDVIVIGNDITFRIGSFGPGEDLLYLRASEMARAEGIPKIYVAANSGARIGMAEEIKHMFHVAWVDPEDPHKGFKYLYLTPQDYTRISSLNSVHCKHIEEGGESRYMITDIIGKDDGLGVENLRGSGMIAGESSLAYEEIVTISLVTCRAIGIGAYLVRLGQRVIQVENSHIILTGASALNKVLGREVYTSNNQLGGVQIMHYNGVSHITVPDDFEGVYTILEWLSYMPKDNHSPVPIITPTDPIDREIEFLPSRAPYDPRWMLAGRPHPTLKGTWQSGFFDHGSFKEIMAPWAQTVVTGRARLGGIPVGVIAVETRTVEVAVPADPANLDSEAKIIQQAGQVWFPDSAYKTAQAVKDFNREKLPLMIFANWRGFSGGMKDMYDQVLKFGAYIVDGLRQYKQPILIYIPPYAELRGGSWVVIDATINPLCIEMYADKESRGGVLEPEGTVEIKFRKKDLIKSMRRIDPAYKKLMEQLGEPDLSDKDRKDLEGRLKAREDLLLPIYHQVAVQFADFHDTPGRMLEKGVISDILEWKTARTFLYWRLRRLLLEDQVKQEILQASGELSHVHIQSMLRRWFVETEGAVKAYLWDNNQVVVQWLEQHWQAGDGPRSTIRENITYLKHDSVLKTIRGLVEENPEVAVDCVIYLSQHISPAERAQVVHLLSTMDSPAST

Structure (SMILES) | melting point [°C] | inhibition at 10 µM [1] [%] | malonyl-CoA (nmol/g-tissue), Malonyl-CoA content of femoral muscle at 2 hours after dosing [2] [nmol/g-tissue] | ACC2 inhibitory rate at 10 μM (%) ([1]; 10 µM)
CC(=O)N[C@@H](C)COc1ccc(-c2nc3ccc(OCC4CC4)cc3o2)nc1 [Example 1, N-[(1S)-2-({6-[6-(cyclopropylmethoxy)-1,3-benzoxazol-2-yl]pyridin-3-yl}oxy)-1-methylethyl]acetamide] | 179 to 180 | 101 |  | 
CC(=O)N[C@@H](C)COc1cc(-c2nc3cc(OCC4CC4)ccc3o2)on1 [Example 2, N-[(1S)-2-({5-[5-(cyclopropylmethoxy)-1,3-benzoxazol-2-yl]isoxazol-3-yl}oxy)-1-methylethyl]acetamide] | 156 to 157 | 92 |  | 
CC(=O)N[C@@H](C)COc1cnc(-c2nc3ccc(OCC4CC4)cc3o2)c(F)c1 [Example 6, N-[(1S)-2-({6-[6-(cyclopropylmethoxy)-1,3-benzoxazol-2-yl]-5-fluoropyridin-3-yl}oxy)-1-methylethyl]acetamide] | 158 to 159 | 95 | 0.513 ± 0.048 | 
CCOc1ccc2nc(-c3ccc(OC[C@H](C)NC(C)=O)cn3)oc2c1 [Example 28, N-[(1S)-2-{[6-(6-ethoxy-1,3-benzoxazol-2-yl)pyridin-3-yl]oxy}-1-methylethyl]acetamide] |  | 83 | 0.663 ± 0.119 | 
C[C@@H](COc1cnc(-c2nc3ccc(OCC4CC4(F)F)cc3o2)c(F)c1)NC(N)=O (stereo partly drawn) [Example 112, Diastereomer of 1-{(1S)-2-[(6-{6-[(2,2-difluorocyclopropyl)methoxy]-1,3-benzoxazol-2-yl}-5-fluoropyridin-3-yl)oxy]-1-methylethyl}urea (retention time: long)] |  |  |  | 100
CCC1(c2ccc(OC[C@H](C)NC(C)=O)cn2)Cc2ccc(OCC3CC3)cc2O1 (stereo partly drawn) [Example 119, Diastereomer of N-[(1S)-2-({6-[6-(cyclopropylmethoxy)-2-ethyl-2,3-dihydro-1-benzofuran-2-yl]pyridin-3-yl}oxy)-1-methylethyl]acetamide] |  | 97 |  | 
